Results: US20240238424A1, “HETEROBIFUNCTIONAL COMPOUNDS AND METHODS OF TREATING DISEASE” (Halda Therapeutics OpCo, Inc., priority 2021, published 2024)

Molecular target: T1, GSPT1 (Homo sapiens, UniProt P15170+Q96SW2)
T1 construct: host or cells: HEK293 LgBiT cell line
Assay: GSPT1 HiBit degradation assay
Format: cell-based
Settings: Table 3; HEK293 LgBiT cells expressing GSPT1_HiBiT, luminescence after 6 hours
From the text: Promega developed a HEK293 cell line that constitutively expresses LgBiT protein and GSPT1_HiBiT fusion protein. When both proteins are present, the HiBiT portion of the fusion protein combines with LgBiT protein to form a functional luciferase enzyme. Endurazine, a cell permeable small molecule, is converted by cellular esterases into furimazine, which the luciferase enzyme uses as a substrate to generate luminescence. When GSPT1 is degraded, the HiBit is also degraded. This prevents formation of fully functional luciferase, leading to a loss in luminescence. GSPT1 degradation therefore correlates with a decrease in luminescence and can be measured continuously over time. The concentration of compound at which 50% GSPT1 degradation occurs (DC50) was calculated using this system.
• HEK293 LgBiT Cell line (Promega Custom) • Endurazine Substrate (Promega Cat. #N2570) • DMEM (Gibco Cat. #11995) • Penicillin/Streptomycin (Gibco Cat. #15140-122) • Heat Inactivated Fetal Bovine Serum (Gibco Cat. #A38400-01) • Hygromycin B (Gibco Cat. #10-687-010) • 384 Well TC Treated White Microplate (Perkin Elmer Cat. #6007680)
HEK293 LgBiT cells were cultured in DMEM Media supplemented with 10% FBS, 5% Pen/Strep, 200 μg/ml hygromycin and stored in an incubator set at 37° C. and 5% CO2. 18-24 hours prior to compound treatment, HEK293 LgBiT cells were seeded at 1000 cells/well in a 384-well microplate in 25 μl complete media. The plate was spun at 300 g for 30 seconds and stored in the incubator overnight. The next day, compounds were titrated in DMSO and added to media supplemented with endurazine substrate. A 25 ul aliquot of 2× compound/endurazine in media were then added to the 384-well microplate with seeded cells. (Endurazine was used at a final concentration of 0.5×). The plate was spun at 300 g for 30 seconds and stored in the incubator. After 6 hours the plate was read on a Perkin Elmer MultiMode Plate Reader Envision 2105 to measure luminescence signal.

T1 sequence (P15170 whole entry): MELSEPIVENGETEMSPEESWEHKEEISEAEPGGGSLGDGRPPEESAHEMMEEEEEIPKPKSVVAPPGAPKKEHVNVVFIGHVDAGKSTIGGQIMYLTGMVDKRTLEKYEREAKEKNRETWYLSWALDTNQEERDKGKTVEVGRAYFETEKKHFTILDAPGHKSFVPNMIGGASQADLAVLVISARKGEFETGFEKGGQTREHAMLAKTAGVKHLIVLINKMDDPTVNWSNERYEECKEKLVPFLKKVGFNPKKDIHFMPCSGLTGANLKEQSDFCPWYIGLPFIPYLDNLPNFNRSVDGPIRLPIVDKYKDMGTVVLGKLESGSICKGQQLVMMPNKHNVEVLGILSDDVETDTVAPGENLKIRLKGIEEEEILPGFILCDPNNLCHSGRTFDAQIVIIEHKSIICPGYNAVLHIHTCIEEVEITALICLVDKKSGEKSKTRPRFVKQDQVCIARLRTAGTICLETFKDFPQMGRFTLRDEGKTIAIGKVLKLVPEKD
T1 sequence (Q96SW2 whole entry): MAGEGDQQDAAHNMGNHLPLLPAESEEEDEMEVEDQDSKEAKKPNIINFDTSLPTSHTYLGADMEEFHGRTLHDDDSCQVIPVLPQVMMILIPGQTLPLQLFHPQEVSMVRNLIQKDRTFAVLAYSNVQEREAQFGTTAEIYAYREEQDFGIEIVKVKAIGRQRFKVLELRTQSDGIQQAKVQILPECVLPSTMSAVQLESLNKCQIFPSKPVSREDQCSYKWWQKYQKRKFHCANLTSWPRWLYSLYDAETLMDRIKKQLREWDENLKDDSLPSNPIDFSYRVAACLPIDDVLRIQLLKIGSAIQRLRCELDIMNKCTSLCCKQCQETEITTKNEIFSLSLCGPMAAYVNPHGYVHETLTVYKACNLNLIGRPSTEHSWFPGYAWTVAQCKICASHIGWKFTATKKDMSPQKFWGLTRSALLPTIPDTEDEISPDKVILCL
T1 sequence (Q16531 whole entry partner): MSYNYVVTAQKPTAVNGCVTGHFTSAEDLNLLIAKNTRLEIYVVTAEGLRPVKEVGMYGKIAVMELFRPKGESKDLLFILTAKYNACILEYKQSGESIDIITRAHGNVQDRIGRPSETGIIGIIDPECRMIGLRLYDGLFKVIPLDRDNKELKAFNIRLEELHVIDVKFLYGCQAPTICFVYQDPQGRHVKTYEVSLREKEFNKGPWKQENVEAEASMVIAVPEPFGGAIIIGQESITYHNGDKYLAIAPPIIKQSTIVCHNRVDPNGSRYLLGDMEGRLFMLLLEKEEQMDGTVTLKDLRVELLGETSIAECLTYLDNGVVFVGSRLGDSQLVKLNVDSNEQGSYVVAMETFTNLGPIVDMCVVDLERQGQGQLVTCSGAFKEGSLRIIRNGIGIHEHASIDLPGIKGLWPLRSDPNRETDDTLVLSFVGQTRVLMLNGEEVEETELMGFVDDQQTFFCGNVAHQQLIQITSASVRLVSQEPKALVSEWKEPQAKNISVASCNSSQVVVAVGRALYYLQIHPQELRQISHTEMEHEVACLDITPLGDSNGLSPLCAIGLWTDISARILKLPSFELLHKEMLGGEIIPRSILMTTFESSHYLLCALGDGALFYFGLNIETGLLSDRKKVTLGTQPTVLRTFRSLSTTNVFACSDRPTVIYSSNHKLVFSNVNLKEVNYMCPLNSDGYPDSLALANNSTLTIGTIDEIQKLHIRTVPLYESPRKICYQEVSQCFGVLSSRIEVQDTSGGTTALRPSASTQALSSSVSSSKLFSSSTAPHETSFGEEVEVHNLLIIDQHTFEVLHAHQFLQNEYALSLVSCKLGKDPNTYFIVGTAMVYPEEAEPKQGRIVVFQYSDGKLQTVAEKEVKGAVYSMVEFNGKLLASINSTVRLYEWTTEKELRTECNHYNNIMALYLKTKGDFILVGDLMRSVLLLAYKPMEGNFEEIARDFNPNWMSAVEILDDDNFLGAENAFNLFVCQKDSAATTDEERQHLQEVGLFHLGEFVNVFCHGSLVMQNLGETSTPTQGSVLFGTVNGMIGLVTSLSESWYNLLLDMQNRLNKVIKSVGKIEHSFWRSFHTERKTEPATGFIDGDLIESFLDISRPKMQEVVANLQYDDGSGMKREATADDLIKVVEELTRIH

DC50 [µM] | SMILES
0.25 to 5 | CCN(CCOCCOCCOCCOCCCCCCCCCCCCCCc1cc(Cl)cc(NC(=O)NCc2ccc3c(c2)CN(C2CCC(=O)NC2=O)C3=O)c1)CCOc1ccc(C(=O)c2c(-c3ccc(O)cc3)sc3cc(O)ccc23)cc1 (centres unmarked) [Compound I-59]
< 0.25 | C=C(F)C(=O)N1CCN(c2nc(OC[C@@H]3CCCN3CCCOCCOCCOCCOCCCCCCCCc3cc(Cl)cc(NC(=O)NCc4ccc5c(c4)CN(C4CCC(=O)NC4=O)C5=O)c3)nc3c2CCN(c2cccc4cccc(Cl)c24)C3)C[C@@H]1CC#N (some centres unmarked) [Compound I-70]
5 to 10 | COc1cc(N2CCN(C(=O)COCCOCCOCCOCCOCCOCCOCCOCCOCCOCCc3cc(Cl)cc(NC(=O)NCc4ccc5c(c4)CN(C4CCC(=O)NC4=O)C5=O)c3)CC2)ccc1Nc1ncc(Cl)c(Nc2ccccc2P(C)(C)=O)n1 (centres unmarked) [Compound I-45]
< 0.25 | C=CC(=O)Nc1cc(Nc2nccc(-c3cn(C)c4ccccc34)n2)c(OC)cc1N(C)CCN(C)CCOCCOCCOCCOCCCCCCCCc1cc(Cl)cc(NC(=O)NCc2ccc3c(c2)CN(C2CCC(=O)NC2=O)C3=O)c1 (centres unmarked) [Compound I-61]
5 to 10 | COc1cc(N2CCN(C(=O)COCCOCCOCCOCCOCCOCCOCCOCCc3cc(Cl)cc(NC(=O)NCc4ccc5c(c4)CN(C4CCC(=O)NC4=O)C5=O)c3)CC2)ccc1Nc1ncc(Cl)c(Nc2ccccc2P(C)(C)=O)n1 (centres unmarked) [Compound I-27]

Same assay, conditions: Table 3A; HEK293 LgBiT cells expressing GSPT1_HiBiT, luminescence after 6 hours

DC50 [µM] | SMILES
0.25 to 5 | C=C(F)C(=O)N1CCN(c2nc(OC[C@@H]3C[C@@H](OCCOCCOCCOCCOCCCCCCCCc4cccc(NC(=O)NCc5ccc6c(c5)CN(C5CCC(=O)NC5=O)C6=O)c4)CN3C)nc3c2CCN(c2cccc4cccc(Cl)c24)C3)C[C@@H]1CC#N (some centres unmarked) [Compound I-99]
0.25 to 5 | CN(C/C=C/C(=O)N1CCN(c2nc(OC[C@@H]3CCCN3C)nc3c2CCN(c2cccc4cccc(Cl)c24)C3)C[C@@H]1CC#N)CCOCCOCCOCCOCCOCCCCCc1cc(Cl)cc(NC(=O)NCc2ccc3c(c2)CN(C2CCC(=O)NC2=O)C3=O)c1 (some centres unmarked) [Compound I-108]
0.25 to 5 | C=CC(=O)N1CCN(c2nc(=O)n(-c3c(C)cc(OCCOCCOCCOCCOCCOCCCCCc4cc(Cl)cc(NC(=O)NCc5ccc6c(c5)CN(C5CCC(=O)NC5=O)C6=O)c4)nc3C(C)C)c3nc(-c4c(O)cccc4F)c(F)cc23)[C@@H](C)C1 (some centres unmarked) [Compound I-149]
0.25 to 5 | C=CC(=O)N1CCN(c2nc(=O)n(-c3c(C)cc(OCCOCCOCCOCCOCCOCCOCCOCCOCCOCCOCCOCCCCCc4cc(Cl)cc(NC(=O)NCc5ccc6c(c5)CN(C5CCC(=O)NC5=O)C6=O)c4)nc3C(C)C)c3nc(-c4c(O)cccc4F)c(F)cc23)[C@@H](C)C1 (some centres unmarked) [Compound I-165]
0.25 to 5 | CN(C/C=C/C(=O)N1CCC[C@@H](n2nc(-c3ccc(Oc4ccccc4)cc3)c3c(N)ncnc32)C1)CCOCCOCCOCCOCCOCCCCCc1cc(Cl)cc(NC(=O)NCc2ccc3c(c2)CN(C2CCC(=O)NC2=O)C3=O)c1 (some centres unmarked) [Compound I-104]
0.25 to 5 | Cc1c(NC(=O)c2ccc(C3CC3)cc2F)cc(F)cc1-c1ncnc(N)c1OCCN(C)C(=O)/C=C/CN(C)CCOCCOCCOCCOCCOCCOCCOCCCCCc1cc(Cl)cc(NC(=O)NCc2ccc3c(c2)CN(C2CCC(=O)NC2=O)C3=O)c1 (centres unmarked) [Compound I-113]
< 0.25 | Cc1c(NC(=O)c2ccc(C3CC3)cc2F)cc(F)cc1-c1ncnc(N)c1OCCN(C)C(=O)/C=C/CN(C)CCOCCOCCOCCOCCOCCOCCOCCOCCOCCOCCCCCCCCc1cc(Cl)cc(NC(=O)NCc2ccc3c(c2)CN(C2CCC(=O)NC2=O)C3=O)c1 (centres unmarked) [Compound I-98]
< 0.25 | CN(C/C=C/C(=O)N1CCN(c2nc(OC[C@@H]3CCCN3C)nc3c2CCN(c2cccc4cccc(Cl)c24)C3)C[C@@H]1CC#N)CCOCCOCCOCCOCCOCCOCCCCCCCCc1cc(Cl)cc(NC(=O)NCc2ccc3c(c2)CN(C2CCC(=O)NC2=O)C3=O)c1 (some centres unmarked) [Compound I-84]
0.25 to 5 | COc1cc(N2CCN(C(=O)COCCOCCOCCOCCOCCOCCOCCOCCOCCCCCc3cc(Cl)cc(NC(=O)NCc4ccc5c(c4)CN(C4CCC(=O)NC4=O)C5=O)c3)CC2)ccc1Nc1ncc(Cl)c(Nc2ccccc2P(C)(C)=O)n1 (centres unmarked) [Compound I-141]
< 0.25 | COc1cc(N2CCN(C(=O)COCCOCCOCCCCCc3cc(Cl)cc(NC(=O)NCc4ccc5c(c4)CN(C4CCC(=O)NC4=O)C5=O)c3)CC2)ccc1Nc1ncc(Cl)c(Nc2ccccc2P(C)(C)=O)n1 (centres unmarked) [Compound I-121]
> 10 | Cc1ccc(NC(=O)NC(CCCCCOCCOCCOCCOCCOCCN(C)C/C=C/C(=O)N2CCN(c3nc(OC[C@@H]4CCCN4C)nc4c3CCN(c3cccc5cccc(Cl)c35)C4)C[C@@H]2CC#N)c2ccc3c(c2)CN(C2CCC(=O)NC2=O)C3=O)cc1Cl (some centres unmarked) [Compound I-114]
< 0.25 | CN(C/C=C/C(=O)N1CCN(c2nc(OC[C@@H]3CCCN3C)nc3c2CCN(c2cccc4cccc(Cl)c24)C3)C[C@@H]1CC#N)CCOCCOCCOCCOCCCCCCCCc1cc(Cl)cc(NC(=O)NCc2ccc3c(c2)CN(C2CCC(=O)NC2=O)C3=O)c1 (some centres unmarked) [Compound I-81]
> 10 | COc1cc(N2CCN(C(=O)COCCOCCOCCOCCOCCOCCOCCOCCOCCOCCOc3cc(Cl)cc(NC(=O)NCc4ccc5c(c4)CN(C4CCC(=O)NC4=O)C5=O)c3)CC2)ccc1Nc1ncc(Cl)c(Nc2ccccc2P(C)(C)=O)n1 (centres unmarked) [Compound I-24, 1-[3-chloro-5-[2-[2-[2-[2-[2-[2-[2-[2-[2-[2-[2-[4-[4-[[5-chloro-4-(2-dimethylphosphorylanilino)pyrimidin-2-yl]amino]-3-methoxy-phenyl]piperazin-1-yl]-2-oxo-ethoxy]ethoxy]ethoxy]ethoxy]ethoxy]ethoxy]ethoxy]ethoxy]ethoxy]ethoxy]ethoxy]phenyl]-3-[[2-(2,6-dioxo-3-piperidyl)-1-oxo-isoindolin-5-yl]methyl]urea]
> 10 | COc1cc(N2CCN(C(=O)COCCOCCOCCOCCOCCOCCOc3cc(Cl)cc(NC(=O)NCc4ccc5c(c4)CN(C4CCC(=O)NC4=O)C5=O)c3)CC2)ccc1Nc1ncc(Cl)c(Nc2ccccc2P(C)(C)=O)n1 (centres unmarked) [Compound I-25]
0.25 to 5 | CN(C/C=C/C(=O)N1CCN(c2nc(OC[C@@H]3CCCN3C)nc3c2CCN(c2cccc4cccc(Cl)c24)C3)C[C@@H]1CC#N)CCOCCOCCOCCOCCOCCOCCOCCOCCOCCCCCc1cc(Cl)cc(NC(=O)NCc2ccc3c(c2)CN(C2CCC(=O)NC2=O)C3=O)c1 (some centres unmarked) [Compound I-162]
